This is an account of results in patent publication US6579881B2 (Eisai Co., Ltd., priority 1997, dated 2003).

The target of assay [1] is T1, serotonin 1A receptor (Rattus norvegicus, UniProt P19327).
T1 construct: To the receptor fraction of the hippocampus were added a test compound and 0.5 nM of [^3H]; 8-hydroxy-dipropylaminotetralin; from tissue; host or cells: SD rat hippocampus, membrane (receptor) fraction
T1 sequence (P19327 1-422): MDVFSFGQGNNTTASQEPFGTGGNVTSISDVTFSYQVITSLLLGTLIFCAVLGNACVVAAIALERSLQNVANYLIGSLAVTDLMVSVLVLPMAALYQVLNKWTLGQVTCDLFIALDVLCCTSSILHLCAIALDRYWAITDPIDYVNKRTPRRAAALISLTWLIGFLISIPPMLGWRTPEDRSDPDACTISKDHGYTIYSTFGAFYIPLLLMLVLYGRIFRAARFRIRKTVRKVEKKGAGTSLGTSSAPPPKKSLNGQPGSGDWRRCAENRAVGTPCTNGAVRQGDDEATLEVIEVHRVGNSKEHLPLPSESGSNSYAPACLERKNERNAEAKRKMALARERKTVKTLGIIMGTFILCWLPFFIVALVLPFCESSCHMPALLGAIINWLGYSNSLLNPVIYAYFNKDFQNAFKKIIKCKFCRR
The experiment in a line: Binding test on [3H] 8-hydroxy-dipropylaminotetralin (serotonin 1A receptor). Conditions: [3H] 8-OH-DPAT 0.5 nM, receptor fraction of rat hippocampus; read-out: 5HT1a.

In assay [2] the target is serotonin 2 receptor (Rattus norvegicus, UniProt P14842). The assay can be described thus: Binding test on [3H] ketanserin (serotonin 2 receptor). Conditions: [3H] ketanserin 0.3 nM, receptor fraction of rat cerebral cortex; read-out: 5HT2.
Sequence of serotonin 2 receptor (P14842 whole entry): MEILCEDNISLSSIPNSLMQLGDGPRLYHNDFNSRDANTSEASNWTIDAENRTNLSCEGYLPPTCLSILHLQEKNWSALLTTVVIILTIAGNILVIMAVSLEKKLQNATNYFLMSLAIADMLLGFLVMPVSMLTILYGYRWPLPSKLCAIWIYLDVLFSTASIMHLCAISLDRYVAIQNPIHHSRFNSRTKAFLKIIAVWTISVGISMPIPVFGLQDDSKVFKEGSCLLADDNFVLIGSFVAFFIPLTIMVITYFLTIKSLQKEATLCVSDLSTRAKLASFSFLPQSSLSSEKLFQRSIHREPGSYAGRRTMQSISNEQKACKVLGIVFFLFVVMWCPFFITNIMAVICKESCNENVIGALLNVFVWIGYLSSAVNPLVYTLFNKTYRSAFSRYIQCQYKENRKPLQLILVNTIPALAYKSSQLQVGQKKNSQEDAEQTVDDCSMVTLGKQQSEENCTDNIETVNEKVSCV
Protocol: Use was made of SD rats aged 6 to 8 weeks.
The rats were sacrificed by dcapitation to extirpate the cerebra.
The hippocampus was mixed with 50 times (on the wet weight basis) as much a 0.32 M sucrose solution while the cortex was mixed with 10 times as much the same solution. Each mixture was homogenized by using a Teflon glass homogenizer and centrifuged at 1,000×g for 10 min. The supernatant thus obtained was further centrifuged at 20,000×g for 20 min. The obtained precipitate was re-suspended in 50 times (based on the intial wet weight; in the case of the hippocampus) or 10 times (in the case of the cortex) as much a 50 mM Tris hydrochloride (pH 7.4) and incubated at room temperature for 30 min. After centrifuging at 20,000×g for 20 min, the obtained precipitate was further suspended and centrifuged twice each in the same manner. The precipitate thus obtained was suspended in 100 times (based on the initial wet weight; in the case of the hippocampus) or 20 times (in the case of the cortex) as much a 50 mM Tris hydrochloride solution (pH 7.4) to thereby give a receptor fraction. This receptor fraction was stored at −80° C. until using.
(Binding Test on [^3H] Ketanserin)
Next, it was filtered through a glass filter with the use of a cell harvester. After washing the glass filter with 50 mM Tris hydrochloride (pH 7.4), the radioactivity of the receptor was measured with a liquid scintillation counter. The binding detected in the presence of 1 μM of methysergide was referred to as the nonspecific binding.
IC50 was calculated by the probit method, while Ki was determined in accordance with the following formula:
wherein c represents the concentration of the radioisotope-labeled compound, and Kd represents the dissociation constant of the radioisotope-labeled compound with respect to the receptor determined by Scatchard's analysis.

With `CC(F)c1ccc2c(c1)N(C1CCN(CCc3ccc(F)cc3)CC1)CC2` (centres unmarked) [Example 144, 1-[1-(4-fluorophenethyl)piperidin-4-yl]-6-(1-fluoroethyl)indoline], the values for the Ki in assay [1] and in assay [2] were 1.49 nM and 3.38 nM, respectively.

On to `Fc1ccc(CCN2CCC(N3CCc4ccccc43)CC2)c(F)c1` [Example 10, 1-[1-(2,4-difluorophenethyl)piperidin-4-yl]indoline], for which the Ki in assay [1] was found to be 8.1 nM; in assay [2], 6 nM.

As for `OCCOc1cccc(CCN2CCC(N3CCc4ccccc43)CC2)c1` [Example 43, 1-{3-[(2-hydroxyethoxy)phenethyl]piperidin-4-yl}indoline], the Ki in assay [1] was determined as 4.2 nM; in assay [2] it was 37.9 nM.

Consider `CCNc1ccc(CCN2CCC(N3CCc4ccccc43)CC2)cc1` [Example 33, 1-[1-(4-ethylaminophenethyl)piperidin-4-yl]indoline], for which the Ki in assay [1] is 5.7 nM; in assay [2], 24.3 nM.

Regarding `CN(C)c1ccc2c(c1)N(C1CCN(CCc3ccc(F)cc3)CC1)CC2` [Example 114, 1-[1-(4-fluorophenethyl)piperidin-4-yl]-6-dimethylaminoindoline], the values for the Ki in assay [1] and in assay [2] were 5.8 nM and 23.2 nM, respectively.

Consider `CCN1CCN([C@@H]2c3ccccc3CC2N(C)Cc2ccc(F)cc2)CC1` (some centres unmarked) [Example 254], for which the Ki in assay [1] is above 200 nM; in assay [2], 177 nM.

On to `OC(c1ccc2c(c1)N(C1CCN(CCc3ccc(F)cc3)CC1)CC2)c1ccc[nH]1` (centres unmarked) [Example 199, 1-[1-(4-fluorophenethyl)piperidin-4-yl]-6-[1-hydroxy-1-(2-pyrrolyl)methyl]indoline], for which the Ki in assay [1] stood at 1.98 nM; in assay [2], 1.19 nM.

As to `FC(F)(F)c1ccc(CCN2CCC(N3CCc4ccccc43)CC2)cc1` [Example 27, 1-[1-(4-trifluoromethylphenethyl)piperidin-4-yl]indoline], the values for the Ki in assay [1] and in assay [2] were above 200 nM and 28.8 nM, respectively.

As for `CCN1CCC(N2CC(Cc3ccc(OC)cc3)c3ccccc32)CC1` (centres unmarked) [Example 242, 1-(1-ethylpiperidin-4-yl)-3-(4-methoxybenzyl)indoline], the figures for the Ki in assay [1] and in assay [2] were above 200 nM and 2.3 nM, respectively.

As for `OCCOc1cccc2c1N(C1CCN(CCc3ccc(F)cc3)CC1)CC2` [Example 123, 1-[1-(4-fluorophenethyl)piperidin-4-yl]-7-hydroxyethoxyindoline], the Ki was determined as 251 nM in assay [1] and 2.7 nM in assay [2].

Regarding `O=C1OCCN1Cc1ccc2c(c1)N(C1CCN(CCc3ccc(F)cc3)CC1)CC2` [Example 208, 1-[1-(4-fluorophenethyl)piperidin-4-yl]-6-(2-oxazolidon-3-yl)methylindoline], the values for the Ki in assay [1] and in assay [2] were 2.33 nM and 1.05 nM, respectively.

Turning to `c1csc(CCN2CCC(N3CCc4ccccc43)CC2)c1` [Example 58, 1-{1-[2-(2-thienyl)ethyl]piperidin-4-yl}indoline], the Ki was 26.2 nM in assay [1] and 34.8 nM in assay [2].

With `CCN1CCC(N2CC(CCc3cccc(F)c3)c3ccccc32)CC1` (centres unmarked) [Example 247, 1-(1-ethylpiperidin-4-yl)-3-(3-fluorophenethyl)indoline], the results for the Ki in assay [1] and in assay [2] were above 200 nM and 52.9 nM, respectively.

With `CC(C)(C)NC(=O)Cc1ccc2c(c1)N(C1CCN(CCc3ccc(F)cc3)CC1)CC2` [Example 153, 1-[1-(4-fluorophenethyl)piperidin-4-yl]-6-(t-butylcarbamoylmethyl)indoline], the results for the Ki in assay [1] and in assay [2] were 15.5 nM and 4.24 nM, respectively.

For `COc1ccc(S(=O)(=O)NCCN2CCC(N3CCc4ccccc43)CC2)cc1` [Example 48, 1-{1-[2-(4-methoxyphenylsulfonylamino)ethyl]piperidin-4-yl}indoline], the Ki was found to be 15.3 nM in assay [1] and 35 nM in assay [2].

Consider `Fc1ccc(CCN2CCC(N3CCc4ccc(Cn5cccc5)cc43)CC2)cc1` [Example 210, 1-[1-(4-fluorophenethyl)piperidin-4-yl]-6-(pyrrol-1-yl)methylindoline], for which the Ki in assay [1] was 2.5 nM; in assay [2] it was 4.93 nM.

Turning to `CC1CC(=C2CCN(CCc3ccc(F)cc3)CC2)c2nccnc21` (centres unmarked) [Example 265, 5-[1-(4-fluorophenethyl)piperidin-4-ylidene]-7-methyl-5,6-dihydrocyclopentapyrazine], the Ki came out at 25.2 nM in assay [1] and 34.2 nM in assay [2].

On to `c1ccc2c(c1)CCN2C1CCN(CCc2ccc3ncsc3c2)CC1` [Example 63, 1-{1-[2-(6-benzothiazolyl)ethyl]piperidin-4-yl}indoline], for which the values for the Ki in assay [1] and in assay [2] were 3.2 nM and 1.2 nM, respectively.

In the case of `OCc1cncc(CCN2CCC(N3CCc4ccccc43)CC2)c1` [Example 56, 1-{1-[2-(3-hydroxymethylpyridin-5-yl)ethyl]piperidin-4-yl}indoline], the Ki in assay [1] amounted to 20.7 nM; in assay [2] it was 1.7 nM.

Turning to `O=C1CNC(=O)N1Cc1ccc2c(c1)N(C1CCN(CCc3ccc(F)cc3)CC1)CC2` [Example 207, 1-[1-(4-fluorophenethyl)piperidin-4-yl]-6-(2,4-imidazolidinedion-3-yl)methylindoline], the Ki was found to be 0.81 nM in assay [1] and 2.69 nM in assay [2].

As to `COc1ccc(CCN2CCC(C3CCc4ccccc43)CC2)cc1` (centres unmarked) [Example 249, 1-[1-(4-methoxyphenethyl)piperidin-4-yl]indan], the Ki worked out at 2.1 nM in assay [1] and 20.2 nM in assay [2].

Consider `COc1ccc2c(c1)C(N1CCN(CCc3ccc(F)cc3)CC1)CCCC2` (centres unmarked) [Example 282, 1-(4-fluorophenethyl)-4-(2-methoxybenzocycloheptan-9-yl)piperazine], for which the Ki in assay [1] came out at 58.7 nM; in assay [2] it was 150 nM.

`N#Cc1ccc(CCN2CCC(N3CCc4ccccc43)CC2)cn1` [Example 54, 1-{1-[2-(2-cyanopyridin-5-yl)ethyl]piperidin-4-yl}indoline]: the Ki in assay [1] was 7.1 nM; in assay [2], 10.3 nM.

As to `Fc1ccc(CCN2CCC(N3CCc4ccc(Cl)cc43)CC2)cc1` [Example 102, 1-[1-(4-fluorophenethyl)piperidin-4-yl]-6-chloroindoline], the figures for the Ki in assay [1] and in assay [2] were 2.7 nM and 28.4 nM, respectively.

Regarding `Fc1ccc(CCN2CCC(N3CCc4ccc(-c5ccc(F)cc5)cc43)CC2)cc1` [Example 201, 1-[1-(4-fluorophenethyl)piperidin-4-yl]-6-(4-fluorophenyl)indoline], the Ki in assay [1] was 7.05 nM; in assay [2], above 200 nM.

On to `CS(=O)(=O)Oc1ccc2c(c1)N(C1CCN(CCc3ccc(F)cc3)CC1)CC2` [Example 122, 1-[1-(4-fluorophenethyl)piperidin-4-yl]-6-methanesulfonyloxyindoline], for which the figures for the Ki in assay [1] and in assay [2] were 0.2 nM and 15.2 nM, respectively.

Turning to `NC(=O)Cc1ccc2c(c1)N(C1CCN(CCc3ccc(F)cc3F)CC1)CC2` [Example 225, 1-[1-(2,4-difluorophenethyl)piperidin-4-yl]-6-carbamoylmethylindoline], the Ki in assay [1] was determined as 5.74 nM; in assay [2] it was 7.61 nM.

For `OC1(c2ccc3c(c2)N(C2CCN(CCc4ccc(F)cc4)CC2)CC3)CCCC1` [Example 141, 1-[1-(4-fluorophenethyl)piperidin-4-yl]-6-(1-hydroxycyclopentyl)indoline], the Ki in assay [1] is 3.03 nM; in assay [2] it was 343 nM.
